Literature values as cited in patent US20210069110A1, “NON-AQUEOUS COMPOSITION HAVING DRUG CARRIED THEREIN, AND METHOD FOR PRODUCING SAME” (Techno Guard Co. Ltd., priority 2017, published 2021).

Conditions: General Notice of Japanese Pharmacopoeia

Row | SMILES | Water solubility of drug (Expression in Japanese Pharmacopoeia)
1 | CO[C@H]1C(=O)[C@]2(C)[C@@H](OC)C[C@H]3OC[C@@]3(OC(C)=O)[C@H]2[C@H](OC(=O)c2ccccc2)[C@]2(O)C[C@H](OC(=O)[C@H](O)[C@@H](NC(=O)OC(C)(C)C)c3ccccc3)C(C)=C1C2(C)C [Cabazitaxel] | Practically insoluble
2 | CC(=O)O[C@@]12CO[C@@H]1C[C@H](O)[C@@]1(C)C(=O)[C@H](O)C3=C(C)[C@@H](OC(=O)[C@H](O)[C@@H](NC(=O)OC(C)(C)C)c4ccccc4)C[C@@](O)([C@@H](OC(=O)c4ccccc4)[C@H]21)C3(C)C [Docetaxel] | Practically insoluble
3 | CC(=O)O[C@H]1C(=O)[C@@]2(C)[C@H]([C@H](OC(=O)c3ccccc3)[C@]3(O)C[C@H](OC(=O)[C@H](O)[C@@H](NC(=O)c4ccccc4)c4ccccc4)C(C)=C1C3(C)C)[C@]1(OC(C)=O)CO[C@@H]1C[C@@H]2O [Paclitaxel] | Practically insoluble
4 | CCCCC[C@H](O)/C=C/[C@H]1[C@H](O)CC(=O)[C@@H]1CCCCCCC(=O)O [Prostaglandin E1] | Practically insoluble
